Experimental findings from US7196083B2, “Heteropolycyclic inhibitors of protein kinases” (priority 2000, dated 2007) are described below.

The target of test [1] is PKB, full-length recombinant bovine protein, alpha form (Bos taurus, UniProt Q01314). Nature of the test: PKB inhibition in vitro enzyme assay (radioactive phosphate incorporation, scintillation counting). In kind it is biochemical. As to conditions: PKB in vitro enzyme assay, 15 min at room temperature.
The next test relates to DU-145 (human carcinoma). Nature of the test: [3H] thymidine uptake cell proliferation assay, DU145. The following applies: read-out: Cell Proliferation Effects (IC50 (nM)). Type of test: cell-based.
Test [2] has as its system LL2 Lewis Lung human lung carcinoma. Kind of test: [3H] thymidine uptake cell proliferation assay, LL2. As to conditions: LL/2, read-out: Cell Proliferation Effects (IC50 (nM)). In kind it is cell-based.
Test [3] relates to SKOV-3 (human ovarian carcinoma). Kind of test: [3H] thymidine uptake cell proliferation assay, SKOV3. Type of test: cell-based. The following applies: SK-OV-3, read-out: Cell Proliferation Effects (IC50 (nM)).
In test [4] the test system is LS-180 (human colon carcinoma). Nature of the test: [3H] thymidine uptake cell proliferation assay, LS180. As to conditions: read-out: Cell Proliferation Effects (IC50 (nM)). Type of test: cell-based.
The subject of test [5] is human breast carcinoma MDA-MB-435 cell line. Nature of the test: [3H] thymidine uptake cell proliferation assay, MDA435. As to conditions: read-out: Cell Proliferation Effects (IC50 (nM)). In kind it is cell-based. The protocol: The human breast carcinoma MDA-MB-435 cell line was obtained from MD Anderson Cancer Center, and cultured in alpha-MEM media supplemented with 10% Fetal Bovine Serum. Cells were maintained in T150 tissue culture flasks, and grown at 37° C. in a humidified 5% CO2 incubator. All cells were passaged regularly using 0.25% Trypsin-EDTA in order to maintain cells at exponential growth for various experiments. LS 180 cells were passaged without trypsin and were physically scraped off the culture flasks. In vitro [^3H] thymidine uptake assay. Proliferation can be measured by quantifying the amount of [^3H] thymidine uptake into cells using a β-counter, and therefore is a well-established diagnostic tool to measure DNA synthesis within the cells. […] The cells were allowed to adhere to the plates via incubation at 37° C. in 5% CO2 for 12–14 hours. […] Then, 10 μL of the compound was added to the pre-existing 90 μL per well, and incubated further at 37° C. in 5% CO2 for 20 hours. To measure thymidine incorporation, cells were fixed onto the culture wells by slowly adding ¼^th volume of cold 50% TCA into each well (25 μL to each well) and incubated for 1–2 hours at 4° C. […] Then, 100 μL of scintillation fluid was added to each well and the activity counted using a Wallac Microbeta Counter.

Test [6] in a line: In vivo xenograft model, tumour growth. As to conditions: 2.5 mg/kg daily i.p. in DMSO, day 15, athymic (Rag2M) female mice; control 100%. The protocol: Mice were inoculated subcutaenously in the rear flank with […] (LS180) and then injected daily with KP-23172 i.p. Tumour measurements were taken daily. A group of 8 athymic (Rag2M) female mice were used as a murine allograft model for the test compound, which was administered in DMSO. 8 control mice received no test compound. Mice were inoculated with tumour cells subcutaneously in the rear flank and then injected with test compound daily intraperitoneally. Tumors were measured and the size calculated, with the objective being a reduction in tumor growth compared to controls. […] Results are illustrated in FIG. 4.

In a further test the test system is PKB. Kind of test: Time course kinase assay in U87 cells, immunoprecipitated with PKB/PH specific antibody. Type of test: cell-based, human. The following applies: for PKB activity, % of control: 5 uM, background about 15% of control. How it is done: The compound was added to culture at mid-logarithmic growth which were harvested at specific time intervals. In preparation for this assay, each cell line was seeded at a density of 3 times 1,000,000 cells per plate onto 150 mm culture dishes and allowed to establish o/n at 37 deg C. A confluency of 50–60% was obtained to ensure maximal drug penetration into each cell. Once the cells were adherent to the culture plates, there were treated with PKB inhibitor KP-23172 for a final conc. of 5 uM. Each culture plate was lysed on ice at specific time intervals using 1% NP-40 lysis buffer containing various protease inhibitors; 10 ug/uL aprotinin, 10 ug/ul leupeptin, 1 ug/ul pepstatin, 1 M beta-glycerophosphate and 100 mM PMSF. The resulting lysates were centrifuged at 15K×g at 4 deg C. for 5 min and then assayed for its protein conc. using Bradford's Reagent and absorbance measurements at 595 nm. […] Each sample was then centrifuged at 14K×g for 2 min at 4 deg C. and the s/n aspirated off. Beads were thoroughly washed twice with lysis buffer, then with Assay Dilution Buffer. When any unbound proteins have been completely washed away from the beads, 30 uL of ADB was added along with 10 uL of PDB substrate. Tubes were immediately incubated in 30 deg. C. water baths after the kinase reaction was allowed to commence with the addition of 10 uL assay (gamma32P)ATP. […] All vials were counted for one minute in the scintillation counter. To determine the potency of KP-23172, U87 cells were plated onto 150 mm petri plates and treated with 5 uM KP-23172. After incubation at 37 deg C. under 5% CO2 for the specified time, cells were lysed and the supernatant extracted for kinase analysis. All samples were immunoprecipitated with PKB/PH specific antibody and kinase activity. measured using a short amino acid peptide as the substrate. […] Background was about 15% of control.

In a further test the target is T1, PKB alpha (Homo sapiens, UniProt P31749).
T1 construct: endogenous in cells; host or cells: U87 cells
T1 sequence (P31749 whole entry): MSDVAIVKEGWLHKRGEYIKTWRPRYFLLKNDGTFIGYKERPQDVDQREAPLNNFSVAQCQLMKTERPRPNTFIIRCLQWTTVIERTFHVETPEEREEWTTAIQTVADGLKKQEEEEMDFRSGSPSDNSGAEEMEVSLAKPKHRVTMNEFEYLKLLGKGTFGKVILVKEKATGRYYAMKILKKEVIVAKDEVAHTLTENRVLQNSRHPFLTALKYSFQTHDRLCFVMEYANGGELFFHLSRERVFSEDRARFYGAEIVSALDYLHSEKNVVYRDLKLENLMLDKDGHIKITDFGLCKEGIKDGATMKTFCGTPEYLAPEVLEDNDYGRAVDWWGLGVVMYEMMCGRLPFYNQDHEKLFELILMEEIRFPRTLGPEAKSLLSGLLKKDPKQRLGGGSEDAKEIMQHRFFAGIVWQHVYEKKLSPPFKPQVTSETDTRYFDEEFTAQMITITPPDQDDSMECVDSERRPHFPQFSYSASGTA
Nature of the test: Kinase assay in U87 cells using anti PKB alpha antibody. Type of test: cell-based. The following applies: U-87 MG, 1 h, after 60 min, read-out: PKB alpha isoform activity, reduction of activity to. The protocol:
In preparation for this assay, each cell line was seeded at a density of 3 times 1,000,000 cells per plate onto 150 mm culture dishes and allowed to establish o/n at 37 deg C. A confluency of 50–60% was obtained to ensure maximal drug penetration into each cell. Once the cells were adherent to the culture plates, there were treated with PKB inhibitor KP-23172 for a final conc. of 5 uM. Each culture plate was lysed on ice at specific time intervals using 1% NP-40 lysis buffer containing various protease inhibitors; 10 ug/uL aprotinin, 10 ug/ul leupeptin, 1 ug/ul pepstatin, 1 M beta-glycerophosphate and 100 mM PMSF. The resulting lysates were centrifuged at 15K×g at 4 deg C. for 5 min and then assayed for its protein conc. using Bradford's Reagent and absorbance measurements at 595 nm. Equal amounts of protein were transferred to a new centrifuge tube and treated with anti-PKB-PH antibody (Kinetek #XXP-021), anti-PKBalpha antibody (Signal Transduction #67220), or anti-PKB gamma antibody (UBI 306-607) and incubated end over end at 4 deg C. […] All vials were counted for one minute in the scintillation counter.
A kinase assay in cells was also performed using anti PKB alpha and gamma antibodies in order to determine any inhibition of the isoforms by KP-23172. U87 cells were treated with 5 uM compound, lysed, and the resulting supernatant was analyzed for any changed in PKB activity. […]

PKB, full-length recombinant bovine protein, alpha form, sequence (Q01314 whole entry): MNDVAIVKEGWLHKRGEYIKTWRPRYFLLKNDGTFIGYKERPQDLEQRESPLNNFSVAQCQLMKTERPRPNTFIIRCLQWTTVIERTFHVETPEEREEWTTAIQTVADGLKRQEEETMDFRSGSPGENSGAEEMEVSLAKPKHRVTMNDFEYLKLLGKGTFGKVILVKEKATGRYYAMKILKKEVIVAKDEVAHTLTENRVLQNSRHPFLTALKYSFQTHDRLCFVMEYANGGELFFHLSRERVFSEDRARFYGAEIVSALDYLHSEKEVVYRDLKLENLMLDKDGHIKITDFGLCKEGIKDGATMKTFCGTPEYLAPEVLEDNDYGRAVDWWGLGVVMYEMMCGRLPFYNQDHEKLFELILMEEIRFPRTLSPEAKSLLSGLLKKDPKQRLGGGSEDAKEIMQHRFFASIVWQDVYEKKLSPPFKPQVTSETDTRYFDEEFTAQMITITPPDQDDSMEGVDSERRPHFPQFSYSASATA

As for `O=C1c2ccccc2-c2nc3nnnn3nc21` [KP-23172], the IC50 in test [1] was 15000 nM; with DU-145 (human carcinoma), 50 nM; in test [2], 400 nM; in test [3], 200 nM; in [4], 80 nM; in test [5], 60 nM. Also, the tumor take rate in [6] was 62.5%. The figures for the “PKB activity, % of control” value in the test on PKB (after 15 min), in the test with PKB (after 30 min) and in the test with PKB (after 60 min) were 80.4%, 23.8% and 38.5%, respectively. Further, the “levels of the kinase in time course kinase assay” value in the test with PKB (5 iM, after 60 minutes) is “significantly decreased levels of the kinase”. Besides, at PKB alpha, the activity at 5 µM stood at 29.6%.
